Measurements published in ChEMBL document CHEMBL6120947, “Synthesis and Antiosteoporotic Characterization of Diselenyl Maleimides: Discovery of a Potent Agent for the Treatment of Osteoporosis by Targeting RANKL” (J Med Chem, 2024).
The source made the active and inactive calls. No cut-off for these calls is given here.

How the values were obtained:
BMDM [1] = experiment: Inhibition of osteoclastogenesis in M-CSF/RANKL-induced osteoclast differentiation in C57BL/6J mouse BMDM cells at 1 uM measured for 1 to 3 days by TRAP staining based analysis; assay type: functional, cell-based; details: time 1-3 day
BMDM [2] = experiment: Inhibition of osteoclastogenesis in M-CSF/RANKL-induced osteoclast differentiation in C57BL/6J mouse BMDM cells assessed as suppression of multinucleated osteoclasts formation incubated for 6 days by TRAP staining based analysis; assay type: functional, cell-based
[3] = Cytotoxicity against C57BL/6J mouse BMDM cells assessed as decrease in cell viability at 20 uM incubated for 48 hrs by MTT assay; assay type: toxicity, cell-based
BMDM [4] = experiment: Inhibition of osteoclastogenesis in M-CSF/RANKL-induced osteoclast differentiation in C57BL/6J mouse BMDM cells assessed as decrease in NFATc1 mRNA level at 1 uM measured for 5 days by qRT-PCR analysis; assay type: functional, cell-based; details: time 5.0 day
BMDM [5] = experiment: Inhibition of osteoclastogenesis in M-CSF/RANKL-induced osteoclast differentiation in C57BL/6J mouse BMDM cells assessed as decrease in c-Fos mRNA level at 1 uM measured for 5 days by qRT-PCR analysis; assay type: functional, cell-based; details: time 5.0 day
BMDM [6] = experiment: Inhibition of osteoclastogenesis in M-CSF/RANKL-induced osteoclast differentiation in C57BL/6J mouse BMDM cells assessed as decrease in NFATc1 level at 1 uM measured for 5 days by Western blot analysis; assay type: functional, cell-based; details: time 5.0 day
BMDM [7] = experiment: Inhibition of osteoclastogenesis in M-CSF/RANKL-induced osteoclast differentiation in C57BL/6J mouse BMDM cells assessed as reduction in c-Fos mRNA level measured after 5 days by qRT-PCR analysis; assay type: functional, cell-based; details: dose <= 2.0 µM, time 5.0 day
BMDM [8] = experiment: Inhibition of osteoclastogenesis in M-CSF/RANKL-induced osteoclast differentiation in C57BL/6J mouse BMDM cells assessed as reduction in NFATc1 mRNA level measured after 5 days by qRT-PCR analysis; assay type: functional, cell-based; details: dose <= 2.0 µM, time 5.0 day
BMDM [9] = experiment: Inhibition of osteoclastogenesis in M-CSF/RANKL-induced osteoclast differentiation in C57BL/6J mouse BMDM cells assessed as reduction in MMP-9 mRNA level measured after 5 days by qRT-PCR analysis; assay type: functional, cell-based; details: dose <= 2.0 µM, time 5.0 day
BMDM [10] = experiment: Inhibition of osteoclastogenesis in M-CSF/RANKL-induced osteoclast differentiation in C57BL/6J mouse BMDM cells assessed as reduction in c-Fos level measured after 5 days by Western blot analysis; assay type: functional, cell-based; details: dose <= 2.0 µM, time 5.0 day
BMDM [11] = experiment: Inhibition of osteoclastogenesis in M-CSF/RANKL-induced osteoclast differentiation in C57BL/6J mouse BMDM cells assessed as reduction in MMP-9 level measured after 5 days by Western blot analysis; assay type: functional, cell-based; details: dose <= 2.0 µM, time 5.0 day
BMDM [12] = experiment: Inhibition of osteoclastogenesis in M-CSF/RANKL-induced osteoclast differentiation in C57BL/6J mouse BMDM cells assessed as reduction in cathepsin K level measured after 5 days by Western blot analysis; assay type: functional, cell-based; details: dose <= 2.0 µM, time 5.0 day
BMDM [13] = experiment: Inhibition of osteoclastogenesis in M-CSF/RANKL-induced osteoclast differentiation in C57BL/6J mouse BMDM cells assessed as reduction in ERK phosphorylation at 1 uM measured upto 60 mins by Western blot analysis; assay type: functional, cell-based
BMDM [14] = experiment: Effect in p38 level in M-CSF/RANKL-induced osteoclast differentiation in C57BL/6J mouse BMDM cells at 1 uM measured upto 60 mins by Western blot analysis; assay type: functional, cell-based
BMDM [15] = experiment: Effect in ERK level in M-CSF/RANKL-induced osteoclast differentiation in C57BL/6J mouse BMDM cells at 1 uM measured upto 60 mins by Western blot analysis; assay type: functional, cell-based
BMDM [16] = experiment: Inhibition of osteoclastogenesis in M-CSF/RANKL-induced osteoclast differentiation in C57BL/6J mouse BMDM cells assessed as reduction in p65 phosphorylation at 1 uM measured upto 60 mins by Western blot analysis; assay type: functional, cell-based
MC3T3-E1 [17] = experiment: Effect on osteoblast mineralization in mouse MC3T3-E1 cells assessed as change in calcium nodules at 0.5 to 2 uM incubated for 7 days by ARS staining based analysis; assay type: functional, cell-based; details: dose 0.5-2 µM, time 7.0 day
MC3T3-E1 [18] = experiment: Effect on osteoblast differentiation in mouse MC3T3-E1 cells assessed as change in Runx2 mRNA level at 0.5 to 2 uM incubated for 7 days by qRT-PCR analysis; assay type: functional, cell-based; details: dose 0.5-2 µM, time 7.0 day
MC3T3-E1 [19] = experiment: Effect on osteoblast differentiation in mouse MC3T3-E1 cells assessed as change in collagen I mRNA level at 0.5 to 2 uM incubated for 7 days by qRT-PCR analysis; assay type: functional, cell-based; details: dose 0.5-2 µM, time 7.0 day
MC3T3-E1 [20] = experiment: Effect on osteoblast differentiation in mouse MC3T3-E1 cells assessed as change in Runx2 level at 0.5 to 2 uM incubated for 7 days by Western blot analysis; assay type: functional, cell-based; details: dose 0.5-2 µM, time 7.0 day
MC3T3-E1 [21] = experiment: Effect on osteoblast differentiation in mouse MC3T3-E1 cells assessed as change in ALP level at 0.5 to 2 uM incubated for 7 days by Western blot analysis; assay type: functional, cell-based; details: dose 0.5-2 µM, time 7.0 day
MC3T3-E1 [22] = experiment: Effect on osteoblast differentiation in mouse MC3T3-E1 cells assessed as change in collagen I level at 0.5 to 2 uM incubated for 7 days by Western blot analysis; assay type: functional, cell-based; details: dose 0.5-2 µM, time 7.0 day
[23] = Toxicity in OVX-induced osteoporosis C57BL/6 mouse model assessed as adverse event at 10 mg/kg, po administered every other day for 8 weeks; assay type: organism-based; details: in vivo, 1344 h
[24] = Toxicity in OVX-induced osteoporosis C57BL/6 mouse model assessed as animal fatality at 10 mg/kg, po administered every other day for 8 weeks; assay type: organism-based; details: in vivo, 1344 h
[25] = Toxicity in OVX-induced osteoporosis C57BL/6 mouse model assessed as pathological change in heart at 10 mg/kg, po administered every other day for 8 weeks by H and E staining based analysis; assay type: organism-based; details: in vivo, 1344 h
[26] = Toxicity in OVX-induced osteoporosis C57BL/6 mouse model assessed as pathological change in spleen at 10 mg/kg, po administered every other day for 8 weeks by H and E staining based analysis; assay type: organism-based; details: in vivo, 1344 h
Mus musculus [27] = experiment: Anti-osteoporosis effect in OVX-induced osteoporosis C57BL/6 mouse model assessed as increase in BV/TV value at 10 mg/kg, po administered every other day for 8 weeks by micro-CT analysis; assay type: functional, organism-based
Mus musculus [28] = experiment: Anti-osteoporosis effect in OVX-induced osteoporosis C57BL/6 mouse model assessed as increase in Tb.Th value at 10 mg/kg, po administered every other day for 8 weeks by micro-CT analysis; assay type: functional, organism-based
Mus musculus [29] = experiment: Anti-osteoporosis effect in OVX-induced osteoporosis C57BL/6 mouse model assessed as increase in Tb.N value at 10 mg/kg, po administered every other day for 8 weeks by micro-CT analysis; assay type: functional, organism-based
Mus musculus [30] = experiment: Anti-osteoporosis effect in OVX-induced osteoporosis C57BL/6 mouse model assessed as decrease in Tb.Sp value at 10 mg/kg, po administered every other day for 8 weeks by micro-CT analysis; assay type: functional, organism-based
Mus musculus [31] = experiment: Anti-osteoporosis effect in OVX-induced osteoporosis C57BL/6 mouse model assessed as improvement of bone surface in femur at 10 mg/kg, po administered every other day for 8 weeks by H and E staining based analysis; assay type: functional, organism-based
Mus musculus [32] = experiment: Anti-osteoporosis effect in OVX-induced osteoporosis C57BL/6 mouse model assessed as increase in number of osteoclasts to bone surface area ratio at 10 mg/kg, po administered every other day for 8 weeks by TRAP staining based analysis; assay type: functional, organism-based

Compound: O=C1C([Se]c2ccccc2)=C([Se]c2ccccc2)C(=O)N1Cc1ccccc1
- inhibition (BMDM [1]): Active
- IC50 (BMDM [2]; 144 h): 360 nM
- inhibition (BMDM [2]; dose <= 2.0 µM, time 6.0 day): Dose-dependent-effect
- Activity [3]: Non-toxic
- inhibition (BMDM [4]): Active
- inhibition (BMDM [5]): Active
- inhibition (BMDM [6]): Active
- inhibition (BMDM [7]): Dose-dependent-effect
- inhibition (BMDM [8]): Dose-dependent-effect
- inhibition (BMDM [9]): Dose-dependent-effect
- inhibition (BMDM [10]): Dose-dependent-effect
- inhibition (BMDM [11]): Dose-dependent-effect
- inhibition (BMDM [12]): Dose-dependent-effect
- inhibition (BMDM [13]): Active
- Activity (BMDM [14]): No effect
- Activity (BMDM [15]): No effect
- inhibition (BMDM [16]): Active
- Activity (MC3T3-E1 [17]): No effect
- Activity (MC3T3-E1 [18]): No effect
- Activity (MC3T3-E1 [19]): No effect
- Activity (MC3T3-E1 [20]): No effect
- Activity (MC3T3-E1 [21]): No effect
- Activity (MC3T3-E1 [22]): No effect
- Activity [23]: Non-toxic
- Activity [24]: Non-toxic
- Activity [25]: Non-toxic
- Activity [26]: Non-toxic
- Activity (Mus musculus [27]): Active; Displayed Similar Effect With That Exhibited By Alendronate
- Activity (Mus musculus [28]): Active; Displayed Similar Effect With That Exhibited By Alendronate
- Activity (Mus musculus [29]): Active; Displayed Similar Effect With That Exhibited By Alendronate
- Activity (Mus musculus [30]): Active; Displayed Similar Effect With That Exhibited By Alendronate
- Activity (Mus musculus [31]): Active; Displayed Similar Effect With That Exhibited By Alendronate
- Activity (Mus musculus [32]): Active; Displayed Similar Effect With That Exhibited By Alendronate
